Measurements taken from US20250122183A1 (Pfizer Inc., priority 2023, published 2025).
Read-outs that look alike come from different tables or passages of the source.

How the values were obtained:
[1] = molecular target: KAT6A Full length enzyme (Homo sapiens (Human), UniProt Q92794); experiment: KAT6A assay (SAMDI-MS acetylation of H3 1-21 peptide); format: biochemical; settings: replicate number in parentheses
[2] = molecular target: KAT7+JADE1+EAF6+ING5 4 protein complex (Homo sapiens (Human), UniProt O95251); experiment: KAT7 JADE1 assay (SAMDI-MS acetylation of H3 1-21 peptide); format: biochemical; settings: replicate number in parentheses
[3] = Morrison equation fit, read-out: KAT6A Ki (nM) (replicate number)
[4] = Morrison equation fit, read-out: KAT7 JADE1 Ki (nM) (replicate number)
[5] = read-out: KAT6A Ki (nM) (replicate)
[6] = read-out: KAT7 JADE1 Ki (nM) (replicate)

Chain of KAT6A Full length enzyme (Q92794 other isoform, or with tags, fused parts or gaps): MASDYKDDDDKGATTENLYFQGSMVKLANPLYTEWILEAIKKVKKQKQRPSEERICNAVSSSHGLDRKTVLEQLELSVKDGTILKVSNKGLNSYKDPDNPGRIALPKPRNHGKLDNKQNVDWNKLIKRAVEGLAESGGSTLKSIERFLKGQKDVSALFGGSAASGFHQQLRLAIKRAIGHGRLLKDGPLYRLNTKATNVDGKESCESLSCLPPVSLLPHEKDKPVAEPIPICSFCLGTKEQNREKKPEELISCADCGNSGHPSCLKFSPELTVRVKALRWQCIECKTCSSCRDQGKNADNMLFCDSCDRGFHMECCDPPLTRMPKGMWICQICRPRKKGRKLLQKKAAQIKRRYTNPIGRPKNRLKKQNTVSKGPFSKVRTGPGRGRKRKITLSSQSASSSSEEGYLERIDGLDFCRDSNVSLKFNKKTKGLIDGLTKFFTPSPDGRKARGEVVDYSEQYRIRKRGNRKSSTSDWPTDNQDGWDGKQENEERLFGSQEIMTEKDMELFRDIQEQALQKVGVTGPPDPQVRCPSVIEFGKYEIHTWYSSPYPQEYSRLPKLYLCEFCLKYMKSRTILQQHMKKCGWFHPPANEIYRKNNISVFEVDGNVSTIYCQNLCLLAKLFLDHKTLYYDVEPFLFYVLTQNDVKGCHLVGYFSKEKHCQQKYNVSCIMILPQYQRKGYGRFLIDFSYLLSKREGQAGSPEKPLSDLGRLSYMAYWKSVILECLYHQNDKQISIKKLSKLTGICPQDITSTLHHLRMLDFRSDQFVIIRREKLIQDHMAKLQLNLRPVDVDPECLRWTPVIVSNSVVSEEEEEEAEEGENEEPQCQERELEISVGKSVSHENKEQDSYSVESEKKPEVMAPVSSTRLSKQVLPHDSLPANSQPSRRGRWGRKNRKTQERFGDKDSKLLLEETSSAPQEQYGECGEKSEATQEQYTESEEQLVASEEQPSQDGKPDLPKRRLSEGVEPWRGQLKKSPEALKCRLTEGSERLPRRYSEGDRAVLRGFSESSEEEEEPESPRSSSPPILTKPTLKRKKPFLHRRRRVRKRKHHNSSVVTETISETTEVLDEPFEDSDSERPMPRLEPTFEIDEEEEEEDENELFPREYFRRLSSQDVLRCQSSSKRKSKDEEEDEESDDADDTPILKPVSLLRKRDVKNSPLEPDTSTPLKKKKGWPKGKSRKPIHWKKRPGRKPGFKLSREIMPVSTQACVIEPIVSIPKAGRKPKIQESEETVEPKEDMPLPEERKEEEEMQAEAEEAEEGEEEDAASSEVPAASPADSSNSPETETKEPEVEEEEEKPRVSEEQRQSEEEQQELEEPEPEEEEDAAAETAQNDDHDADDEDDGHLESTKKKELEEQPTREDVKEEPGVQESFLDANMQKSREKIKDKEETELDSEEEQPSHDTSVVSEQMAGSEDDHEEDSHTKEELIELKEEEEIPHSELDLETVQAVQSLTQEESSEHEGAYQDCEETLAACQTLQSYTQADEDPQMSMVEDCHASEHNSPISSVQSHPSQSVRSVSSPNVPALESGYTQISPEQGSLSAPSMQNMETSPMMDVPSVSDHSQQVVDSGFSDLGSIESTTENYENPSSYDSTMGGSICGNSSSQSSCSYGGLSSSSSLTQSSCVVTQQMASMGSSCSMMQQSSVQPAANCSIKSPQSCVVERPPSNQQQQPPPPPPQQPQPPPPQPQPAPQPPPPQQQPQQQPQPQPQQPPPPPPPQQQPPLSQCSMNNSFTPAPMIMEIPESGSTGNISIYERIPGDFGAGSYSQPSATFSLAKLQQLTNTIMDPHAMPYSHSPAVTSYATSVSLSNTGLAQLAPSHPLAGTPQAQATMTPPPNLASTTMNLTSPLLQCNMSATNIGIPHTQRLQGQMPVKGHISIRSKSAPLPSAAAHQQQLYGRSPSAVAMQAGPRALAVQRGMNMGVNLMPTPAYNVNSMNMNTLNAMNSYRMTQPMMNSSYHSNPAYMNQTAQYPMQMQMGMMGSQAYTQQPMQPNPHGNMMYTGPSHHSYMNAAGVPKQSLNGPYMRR

SMILES	Ki [1, 3] [nM]	Ki [2, 4] [nM]	Ki [1, 5] [nM]	Ki [2, 6] [nM]
COc1cc2c(NS(=O)(=O)c3c(OC)cc(CN4CCC(F)(F)C4)cc3OC)noc2cc1Nc1cc(C2CC2)n[nH]1 [Example 196, N-{6-[(3-cyclopropyl-1H-pyrazol-5-yl)amino]-5-methoxy-1,2-benzoxazol-3-yl}-4-[(3,3-difluoropyrrolidin-1-yl)methyl]-2,6-dimethoxybenzene-1-sulfonamide]	0.9	4	–	–
COc1cc2c(NS(=O)(=O)c3c(OC)cc(CN4CCCC(F)(F)C4)cc3OC)noc2cc1Nc1cc(C2CC2)n[nH]1 [Example 199, N-{6-[(3-cyclopropyl-1H-pyrazol-5-yl)amino]-5-methoxy-1,2-benzoxazol-3-yl}-4-[(3,3-difluoropiperidin-1-yl)methyl]-2,6-dimethoxybenzene-1-sulfonamide]	0.7	5.2	–	–
COc1cc2c(NS(=O)(=O)c3c(OC)cc(CN4CC(C)C4)cc3OC)noc2cc1Nc1cc(C2CC2)n[nH]1 [Example 200, N-{6-[(3-cyclopropyl-1 H-pyrazol-5-yl)amino]-5-methoxy-1,2-benzoxazol-3-yl}-2,6-dimethoxy-4-[(3-methylazetidin-1-yl)methyl]benzene-1-sulfonamide]	2.1	17.2	–	–
COc1cc2c(NS(=O)(=O)c3c(OC)cc(CN4CC[C@@H](C(F)F)C4)cc3OC)noc2cc1Nc1cc(C2CC2)n[nH]1 [Example 204]	1.1	4.9	–	–
COc1cc2c(NS(=O)(=O)c3c(OC)cc(CN4CCC(C(F)(F)F)C4)cc3OC)noc2cc1Nc1cc(C2CC2)n[nH]1 (centres unmarked) [Example 205, N-{6-[(3-cyclopropyl-1H-pyrazol-5-yl)amino]-5-methoxy-1,2-benzoxazol-3-yl}-2,6-dimethoxy-4-{[3-(trifluoromethyl)pyrrolidin-1-yl]methyl}benzene-1-sulfonamide]	1.4	6	–	–
COc1cc2c(NS(=O)(=O)c3c(OC)cc(CN4CCCC4(C)C)cc3OC)noc2cc1Nc1cc(C2CC2)n[nH]1 [Example 206, N-{6-[(3-cyclopropyl-1H-pyrazol-5-yl)amino]-5-methoxy-1,2-benzoxazol-3-yl}-4-[(2,2-dimethylpyrrolidin-1-yl)methyl]-2,6-dimethoxybenzene-1-sulfonamide]	4.4	28.8	–	–
COc1cc2c(NS(=O)(=O)c3c(OC)cc(-c4nccc(N(C)C)n4)cc3OC)noc2cc1Nc1cc(C2CC2)n[nH]1 [Example 216, N-{6-[(3-cyclopropyl-1H-pyrazol-5-yl)amino]-5-methoxy-1,2-benzoxazol-3-yl}-4-[4-(dimethylamino)pyrimidin-2-yl]-2,6-dimethoxybenzene-1-sulfonamide]	0.2	1.6	–	–
COc1cc2c(NS(=O)(=O)c3c(OC)cc(-c4cnc(N(C)C)cn4)cc3OC)noc2cc1Nc1cc(C2CC2)n[nH]1 [Example 217, N-{6-[(3-cyclopropyl-1H-pyrazol-5-yl)amino]-5-methoxy-1,2-benzoxazol-3-yl}-4-[5-(dimethylamino)pyrazin-2-yl]-2,6-dimethoxybenzene-1-sulfonamide]	0.2	1.9	–	–
COc1cc2c(NS(=O)(=O)c3c(OC)cc(-c4ncc(N(C)C)cn4)cc3OC)noc2cc1Nc1cc(C2CC2)n[nH]1 [Example 218, N-{6-[(3-cyclopropyl-1H-pyrazol-5-yl)amino]-5-methoxy-1,2-benzoxazol-3-yl}-4-[5-(dimethylamino)pyrimidin-2-yl]-2,6-dimethoxybenzene-1-sulfonamide]	0.1	0.4	–	–
COc1cc2c(NS(=O)(=O)c3c(OC)cc(-c4ccc(C)nn4)cc3OC)noc2cc1Nc1cc(C2CC2)n[nH]1 [Example 219, N-{6-[(3-cyclopropyl-1H-pyrazol-5-yl)amino]-5-methoxy-1,2-benzoxazol-3-yl}-2,6-dimethoxy-4-(6-methylpyridazin-3-yl)benzene-1-sulfonamide]	0.2	1.9	–	–
COc1cc2c(NS(=O)(=O)c3c(OC)cc(-c4cc5n(n4)CCOC5)cc3OC)noc2cc1Nc1cc(C2CC2)n[nH]1 [Example 220, N-{6-[(3-cyclopropyl-1H-pyrazol-5-yl)amino]-5-methoxy-1,2-benzoxazol-3-yl}-4-(6,7-dihydro-4H-pyrazolo[5,1-c][1,4]oxazin-2-yl)-2,6-dimethoxybenzene-1-sulfonamide]	0.4	4	–	–
COc1cc2c(NS(=O)(=O)c3c(OC)cc(-c4ncc(C#N)cn4)cc3OC)noc2cc1Nc1cc(C2CC2)n[nH]1 [Example 224, 4-(5-cyanopyrimidine-2-yl)-N-{6-[(3-cyclopropyl-1 H-pyrazol-5-yl)amino]-5-methoxy-1,2-benzoxazol-3-yl}-2,6-dimethoxybenzene-1-sulfonamide]	1.5	7.2	–	–
COc1cc2c(NS(=O)(=O)c3c(OC)cc(-c4ncc5c(n4)CN(C)CC5)cc3OC)noc2cc1Nc1cc(C2CC2)n[nH]1 [Example 225, N-{6-[(3-cyclopropyl-1 H-pyrazol-5-yl)amino]-5-methoxy-1,2-benzoxazol-3-yl}-2,6-dimethoxy-4-(7-methyl-5,6,7,8-tetrahydropyrido[3,4-d]pyrimidin-2-yl)benzene-1-sulfonamide]	0.6	7	–	–
CCc1cc(Nc2cc3onc(NS(=O)(=O)c4c(OC)cc(-c5nccn5C)cc4OC)c3cc2OC)[nH]n1 [Example 237, N-{6-[(3-ethyl-1H-pyrazol-5-yl)amino]-5-methoxy-1,2-benzoxazol-3-yl}-2,6-dimethoxy-4-(1-methyl-1H-imidazol-2-yl)benzene-1-sulfonamide]	1.4	15.4	–	–
CCc1cc(Nc2cc3onc(NS(=O)(=O)c4c(OC)cc(-c5cn(C)cn5)cc4OC)c3cc2OC)[nH]n1 [Example 238, N-{6-[(3-ethyl-1H-pyrazol-5-yl)amino]-5-methoxy-1,2-benzoxazol-3-yl}-2,6-dimethoxy-4-(1-methyl-1H-imidazol-4-yl)benzene-1-sulfonamide]	1.2	12.7	–	–
COc1cc2c(NS(=O)(=O)c3c(OC)cc(N4CC(F)C4)cc3OC)noc2cc1Nc1cc(C2CC2)n[nH]1 [Example 252, N-{6-[(3-cyclopropyl-1H-pyrazol-5-yl)amino]-5-methoxy-1,2-benzoxazol-3-yl}-4-(3-fluoroazetidin-1-yl)-2,6-dimethoxybenzene-1-sulfonamide]	–	–	0.8	5.7
COc1cc2c(NS(=O)(=O)c3c(OC)cc(N4CC(OC)C4)cc3OC)noc2cc1Nc1cc(C2CC2)n[nH]1 [Example 253, N-{6-[(3-cyclopropyl-1H-pyrazol-5-yl)amino]-5-methoxy-1,2-benzoxazol-3-yl}-2,6-dimethoxy-4-(3-methoxyazetidin-1-yl)benzene-1-sulfonamide]	–	–	0.6	5
COc1cc2c(NS(=O)(=O)c3c(OC)cc(N4C(=O)CCC45CCC5)cc3OC)noc2cc1Nc1cc(C2CC2)n[nH]1 [Example 255, N-{6-[(3-cyclopropyl-1 H-pyrazol-5-yl)amino]-5-methoxy-1,2-benzoxazol-3-yl}-2,6-dimethoxy-4-(6-oxo-5-azaspiro[3.4]octan-5-yl)benzene-1-sulfonamide]	–	–	0.8	4.2
COc1cc2c(NS(=O)(=O)c3c(OC)cc(C(=O)N4CCC(F)(F)C4)cc3OC)noc2cc1Nc1cc(C2CC2)n[nH]1 [Example 257, N-{6-[(3-cyclopropyl-1H-pyrazol-5-yl)amino]-5-methoxy-1,2-benzoxazol-3-yl}-4-(3,3-difluoropyrrolidine-1-carbonyl)-2,6-dimethoxybenzene-1-sulfonamide]	–	–	1.6	9.5
